Read-outs that look alike come from different tables or passages of the source.
Columns and labels:
METTL3/METTL14 = METTL3/METTL14 (Homo sapiens, UniProt Q86U44); test: METTL3-14 Standard Enzyme Assay (METTL3 biochemical assay)
Summary of the method: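 Tritium transfer from ³H-SAM (100 nM) to biotinylated RNA (100 nM) captured on streptavidin flashplates and counted by scintillation. Enzyme complex (2.5 nM) with compound, 5 min preincubation, 30 min reaction at ambient temperature, HEPES pH 7.5 buffer, stopped by excess unlabeled SAM.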

[1] = system: m6A in cellular mRNA of MOLM-13 cells; test: m6A-mRNA LC-MS/MS Assay (m6A cellular assay); assay type: cell-based; conditions: Homo sapiens, MOLM-13, read-out: m^6A IC50
Summary of the method: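 Cells harvested, mRNA extracted and digested to single nucleosides, then analysed by LC-MS/MS. Nucleosides quantified against a standard curve from pure nucleoside standards run in the same batch. m6A level expressed as 100*(m6A/A).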

MOLM-13 cells = test: MOLM-13 96 Hour Cell Proliferation Assay; assay type: cell-based; conditions: Homo sapiens
Summary of the method: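 MOLM-13 cells in RPMI 1640 with 10% FBS were plated overnight at 37 °C, then exposed to compound dilutions at 0.25% DMSO final for 96 h. Viability was read by CellTiter-Glo luminescence, normalised to staurosporine (100% death) and DMSO (0% death) controls, and IC50 was fitted by 4-parameter logistic regression.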

PRMT5-MEP50 = PRMT5-MEP50 (Homo sapiens, UniProt O14744); test: PRMT5 Assay (PRMT5 biochemical assay)
Summary of the method: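 Radiometric methyltransferase read-out: after 60 min reaction, excess unlabelled SAM (15 μM) stops turnover and biotinylated H4 peptide (100 nM) carrying 3H-methyl from 250 nM 3H-SAM is captured on streptavidin flashplates (2 h, 25° C) for scintillation counting. Enzyme, 2.5 nM PRMT5-MEP50, was preincubated 5 min with compound in pH 8.0 Tris buffer with DTT and Tween.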

METTL1/WDR4 = METTL1/WDR4 (Homo sapiens, UniProt Q9UBP6); test: METTL1 Assay (METTL1 biochemical assay)
Summary of the method: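 Radiometric methyltransfer by METTL1/WDR4 (6.25 nM f.c., 5 min preincubation) at ambient temperature in HEPES pH 7.5, KCl, MgCl2, DTT; started with 25 nM 3′-biotinylated RNA and 60 nM 3H-SAM, run 20 min, quenched with 15 μM cold SAM. Product captured on streptavidin flashplates (2 h, 25° C), counted by scintillation.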

[2] = read-out: METTL3 IC50; METTL3 biochemical assay
[3] = read-out: PRMT5 IC50; PRMT5 biochemical assay
[4] = METTL3 biochemical assay; read-out: METTL3 IC50
[5] = read-out: METTL1 IC50, METTL1 biochemical assay
[6] = PRMT5 biochemical assay; read-out: PRMT5 IC50

Sequence of METTL1/WDR4 (Q9UBP6 whole entry, species assumed): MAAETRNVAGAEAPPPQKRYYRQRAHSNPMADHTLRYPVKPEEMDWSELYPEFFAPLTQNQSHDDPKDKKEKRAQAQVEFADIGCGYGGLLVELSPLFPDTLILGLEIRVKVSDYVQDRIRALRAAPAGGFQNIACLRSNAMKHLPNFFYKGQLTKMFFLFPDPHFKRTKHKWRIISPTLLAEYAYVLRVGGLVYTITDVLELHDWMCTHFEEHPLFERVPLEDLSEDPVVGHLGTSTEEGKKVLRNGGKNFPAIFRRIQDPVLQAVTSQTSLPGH
Sequence of METTL1/WDR4 (P57081 whole entry partner, species assumed): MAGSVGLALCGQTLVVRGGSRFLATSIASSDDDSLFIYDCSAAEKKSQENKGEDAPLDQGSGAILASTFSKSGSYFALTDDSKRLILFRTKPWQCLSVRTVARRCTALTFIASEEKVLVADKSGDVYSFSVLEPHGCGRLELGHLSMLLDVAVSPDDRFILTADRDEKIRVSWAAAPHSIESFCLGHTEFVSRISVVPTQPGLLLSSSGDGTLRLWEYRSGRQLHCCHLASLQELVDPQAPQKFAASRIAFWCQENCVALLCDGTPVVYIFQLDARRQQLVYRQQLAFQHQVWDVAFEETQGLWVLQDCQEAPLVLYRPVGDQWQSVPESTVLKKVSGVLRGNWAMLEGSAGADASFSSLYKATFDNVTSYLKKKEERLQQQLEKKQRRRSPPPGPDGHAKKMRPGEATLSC
Sequence of METTL3/METTL14 (Q86U44 whole entry, species assumed): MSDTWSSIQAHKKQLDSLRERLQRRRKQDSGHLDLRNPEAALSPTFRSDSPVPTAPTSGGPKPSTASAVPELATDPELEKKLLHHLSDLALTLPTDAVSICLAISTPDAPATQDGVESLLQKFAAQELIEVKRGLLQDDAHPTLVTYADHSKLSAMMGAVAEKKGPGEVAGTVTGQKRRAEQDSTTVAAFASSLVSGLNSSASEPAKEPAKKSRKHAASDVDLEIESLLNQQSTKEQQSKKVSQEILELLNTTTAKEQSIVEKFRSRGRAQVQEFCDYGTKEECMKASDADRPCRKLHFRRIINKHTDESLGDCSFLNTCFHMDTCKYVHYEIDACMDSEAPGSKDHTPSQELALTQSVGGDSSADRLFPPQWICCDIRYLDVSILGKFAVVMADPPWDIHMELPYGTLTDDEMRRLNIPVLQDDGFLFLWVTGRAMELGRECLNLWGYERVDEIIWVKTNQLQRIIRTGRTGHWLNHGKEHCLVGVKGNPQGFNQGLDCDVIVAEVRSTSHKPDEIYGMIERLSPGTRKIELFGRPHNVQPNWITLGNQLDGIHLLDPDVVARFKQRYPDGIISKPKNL
Sequence of METTL3/METTL14 (Q9HCE5 whole entry partner, species assumed): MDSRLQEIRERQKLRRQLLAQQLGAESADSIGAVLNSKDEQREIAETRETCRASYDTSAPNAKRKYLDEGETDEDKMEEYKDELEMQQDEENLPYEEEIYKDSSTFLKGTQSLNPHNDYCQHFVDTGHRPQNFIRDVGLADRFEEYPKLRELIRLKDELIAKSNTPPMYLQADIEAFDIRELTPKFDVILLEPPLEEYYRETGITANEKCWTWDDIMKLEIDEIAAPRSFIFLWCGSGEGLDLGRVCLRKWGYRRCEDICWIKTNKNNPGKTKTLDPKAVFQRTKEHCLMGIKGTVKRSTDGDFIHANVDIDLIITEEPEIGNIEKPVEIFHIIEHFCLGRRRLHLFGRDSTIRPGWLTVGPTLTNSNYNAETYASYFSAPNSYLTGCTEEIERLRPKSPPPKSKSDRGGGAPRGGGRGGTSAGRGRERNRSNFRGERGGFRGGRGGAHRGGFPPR
Sequence of PRMT5-MEP50 (O14744 whole entry): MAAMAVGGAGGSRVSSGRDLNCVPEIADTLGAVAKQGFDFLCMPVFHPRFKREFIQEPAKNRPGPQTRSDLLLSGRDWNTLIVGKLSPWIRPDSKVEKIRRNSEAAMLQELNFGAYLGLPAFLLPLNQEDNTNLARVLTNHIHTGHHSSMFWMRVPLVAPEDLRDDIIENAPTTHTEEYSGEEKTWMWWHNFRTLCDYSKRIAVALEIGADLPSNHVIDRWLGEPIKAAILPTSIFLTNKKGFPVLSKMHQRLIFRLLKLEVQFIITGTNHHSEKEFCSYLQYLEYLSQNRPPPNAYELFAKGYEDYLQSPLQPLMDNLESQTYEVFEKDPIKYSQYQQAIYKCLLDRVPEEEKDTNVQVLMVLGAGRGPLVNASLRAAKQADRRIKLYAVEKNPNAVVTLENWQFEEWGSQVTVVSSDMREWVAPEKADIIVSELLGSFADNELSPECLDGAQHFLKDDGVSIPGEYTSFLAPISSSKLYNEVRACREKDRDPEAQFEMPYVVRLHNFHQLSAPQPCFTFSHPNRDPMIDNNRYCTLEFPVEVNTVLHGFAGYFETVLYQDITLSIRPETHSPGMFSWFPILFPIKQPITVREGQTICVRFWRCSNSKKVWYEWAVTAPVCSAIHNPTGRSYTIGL
Sequence of PRMT5-MEP50 (Q9BQA1 whole entry partner): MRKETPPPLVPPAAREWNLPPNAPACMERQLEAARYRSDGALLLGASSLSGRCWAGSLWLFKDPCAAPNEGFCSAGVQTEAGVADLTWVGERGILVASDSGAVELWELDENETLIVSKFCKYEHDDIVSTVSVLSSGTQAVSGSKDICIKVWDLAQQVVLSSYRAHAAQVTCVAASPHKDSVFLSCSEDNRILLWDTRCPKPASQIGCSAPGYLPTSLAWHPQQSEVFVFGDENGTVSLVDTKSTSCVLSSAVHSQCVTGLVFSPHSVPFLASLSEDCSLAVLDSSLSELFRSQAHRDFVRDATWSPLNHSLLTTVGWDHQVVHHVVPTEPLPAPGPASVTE

## CCNc1ccc2ccc(OC[C@H]3O[C@@H](n4cc(-c5cn(C)cn5)c5c(N)ncnc54)[C@@H](F)[C@@H]3O)cc2n1 [I-10]
METTL3/METTL14; [2]
  IC50: < 0.01 µM
[1]
  IC50: 1 to 10 µM
MOLM-13 cells
  IC50: < 1 µM
PRMT5-MEP50; [3]
  IC50: 0.1 to 1 µM

## CNc1ccc2ccc(OC[C@H]3O[C@@H](n4cc(-c5ccn(C)n5)c5c(N)ncnc54)[C@@H](F)[C@@H]3O)cc2n1 [I-12]
METTL3/METTL14; [2]
  IC50: < 0.01 µM
[1]
  IC50: < 1 µM
MOLM-13 cells
  IC50: < 1 µM
PRMT5-MEP50; [3]
  IC50: 0.01 to 0.1 µM

## CNc1ccc2ccc(OC[C@H]3O[C@@H](n4cc(CC5CCCC5)c5c(N)ncnc54)[C@H](O)[C@@H]3O)cc2n1 [I-23]
METTL3/METTL14; [4]
  IC50: < 0.01 µM
[1]
  IC50: 1 to 10 µM
METTL1/WDR4; [5]
  IC50: > 1 µM
PRMT5-MEP50; [6]
  IC50: 0.01 to 0.1 µM

## CNc1ccc2ccc(OC[C@H]3O[C@@H](n4cc(C5CC5)c5c(N)ncnc54)[C@@H](F)[C@@H]3O)cc2n1 [I-29]
METTL3/METTL14; [4]
  IC50: < 0.01 µM
[1]
  IC50: 1 to 10 µM
METTL1/WDR4; [5]
  IC50: > 1 µM
MOLM-13 cells; MOLM-13, 96 h
  IC50: < 1 µM
PRMT5-MEP50; [6]
  IC50: 0.1 to 1 µM

## CNc1ccc2ccc(OC[C@H]3O[C@@H](n4cc(C5CCCC5)c5c(N)ncnc54)[C@H](O)[C@@H]3O)cc2n1 [I-33, (2R,3R,4S,5R)-2-(4-amino-5-cyclopentyl-7H-pyrrolo[2,3-d]pyrimidin-7-yl)-5-(((2-(methylamino)quinolin-7-yl)oxy)methyl)tetrahydrofuran-3,4-diol]
METTL3/METTL14; [4]
  IC50: < 0.01 µM
[1]
  IC50: < 1 µM
METTL1/WDR4
  IC50: > 1 µM
MOLM-13 cells; MOLM-13, 96 h
  IC50: < 1 µM
PRMT5-MEP50; [6]
  IC50: < 0.01 µM

## CNc1ccc2ccc(OC[C@H]3O[C@@H](n4cc(CC5CC5)c5c(N)ncnc54)[C@@H](F)[C@@H]3O)cc2n1 [I-36]
METTL3/METTL14; [4]
  IC50: < 0.01 µM
[1]
  IC50: 1 to 10 µM
METTL1/WDR4; [5]
  IC50: > 1 µM
MOLM-13 cells; MOLM-13, 96 h
  IC50: < 1 µM
PRMT5-MEP50; [6]
  IC50: 0.1 to 1 µM

## CNc1ccc2ccc(CC[C@H]3O[C@@H](n4cc(C5CCCC5)c5c(N)ncnc54)[C@H](O)[C@@H]3O)cc2n1 [I-39]
METTL3/METTL14; [4]
  IC50: < 0.01 µM
[1]
  IC50: 1 to 10 µM
METTL1/WDR4; [5]
  IC50: > 1 µM
MOLM-13 cells; MOLM-13, 96 h
  IC50: < 1 µM
PRMT5-MEP50; [6]
  IC50: < 0.01 µM

## CNc1ccc2ccc(OC[C@H]3O[C@@H](n4cc(Cl)c5c(N)ncnc54)[C@H](O)[C@@H]3O)cc2n1 [I-70]
METTL3/METTL14; [4]
  IC50: < 0.01 µM
[1]
  IC50: 1 to 10 µM
METTL1/WDR4; [5]
  IC50: > 1 µM
MOLM-13 cells; MOLM-13, 96 h
  IC50: < 1 µM
PRMT5-MEP50; [6]
  IC50: < 0.01 µM

## CNc1ccc2ccc(OC[C@H]3O[C@@H](n4cc(Br)c5c(N)ncnc54)[C@H](O)[C@@H]3O)cc2n1 [I-73]
METTL3/METTL14; [4]
  IC50: < 0.01 µM
[1]
  IC50: 1 to 10 µM
METTL1/WDR4; [5]
  IC50: > 1 µM
MOLM-13 cells; MOLM-13, 96 h
  IC50: < 1 µM
PRMT5-MEP50; [6]
  IC50: < 0.01 µM

## Cn1ccc(-c2cn([C@@H]3O[C@H](COc4ccc5ccc(N6CCC6)nc5c4)[C@@H](O)[C@@H]3F)c3ncnc(N)c23)n1 [I-149]
METTL3/METTL14; [2]
  IC50: < 0.01 µM
[1]
  IC50: < 1 µM
METTL1/WDR4; METTL1 biochemical assay, read-out: METTL1 IC50
  IC50: > 1 µM
MOLM-13 cells; MOLM-13, 96 h
  IC50: < 1 µM
PRMT5-MEP50; [3]
  IC50: > 1 µM
